Measured values from ChEMBL document CHEMBL1201862, “PubChem BioAssay data set” (2004).
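The compound was tested at five concentrations on cells cultured in 96-well plates, with a 48-hour exposure period. Abbreviation: GI50, concentration required for 50% inhibition of growth.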 Active and inactive are the calls of the source. No stated cut-off is given here; in the data, active = GI50 up to about 1.1 µM and inactive = higher.

Tests used:
Experiment in all cases: growth of human tumour cells (NCI), 48 h
[1] = tested on: ACHN
[2] = tested on: MDA-MB-231
[3] = tested on: MCF7
[4] = tested on: CAKI-1
[5] = tested on: PC-3
[6] = tested on: OVCAR-3
[7] = tested on: NCI/ADR-RES
[8] = tested on: NCI-H522
[9] = tested on: TK-10
[10] = tested on: SR
[11] = tested on: M14
[12] = tested on: DMS-273
[13] = tested on: M19-MEL
[14] = tested on: DLD-1
[15] = tested on: KM-20L2
[16] = tested on: HOP-18
[17] = tested on: A498
[18] = tested on: SNB-78
[19] = tested on: DMS-114
[20] = tested on: XF498

Row | SMILES | GI50 [1] | GI50 [2] | GI50 [3] | GI50 [4] | GI50 [5] | GI50 [6] | GI50 [7] | GI50 [8] | GI50 [9] | GI50 [10] | GI50 [11] | GI50 [12] | GI50 [13] | GI50 [14] | GI50 [15] | GI50 [16] | GI50 [17] | GI50 [18] | GI50 [19] | GI50 [20]
1 | CCP(=O)(CC)C(Cl)Cl | > 100 µM (inactive) | > 100 µM (inactive) | > 100 µM (inactive) | > 100 µM (inactive) | > 100 µM (inactive) | > 100 µM (inactive) | > 100 µM (inactive) | > 100 µM (inactive) | > 100 µM (inactive) | > 100 µM (inactive) | > 100 µM (inactive) | – | – | – | – | – | – | – | – | –
2 | COc1cc(CCCl)c(CC2=NCCc3cc(OC)c(OC)cc32)cc1OC | > 100 µM (inactive) | 55.7 µM (inactive) | 88.9 µM (inactive) | 34 µM (inactive) | 41.1 µM (inactive) | > 100 µM (inactive) | > 100 µM (inactive) | – | 30.2 µM (inactive) | 23 µM (inactive) | 50.1 µM (inactive) | – | – | – | – | – | – | – | – | –
3 | COc1cc(/C=C/C2=C(C#N)C(=O)OC2(C)C)ccc1O | 34.2 µM (inactive) | – | – | > 100 µM (inactive) | – | > 100 µM (inactive) | – | 16.7 µM (inactive) | > 100 µM (inactive) | 14.2 µM (inactive) | – | > 100 µM (inactive) | > 100 µM (inactive) | 54 µM (inactive) | 58.5 µM (inactive) | > 100 µM (inactive) | > 100 µM (inactive) | > 100 µM (inactive) | – | –
4 | NC(=O)C1(c2ccccc2)Nc2ccccc2S1 (stereo not given) | > 100 µM (inactive) | – | – | > 100 µM (inactive) | – | > 100 µM (inactive) | – | > 100 µM (inactive) | > 100 µM (inactive) | > 100 µM (inactive) | > 100 µM (inactive) | > 100 µM (inactive) | > 100 µM (inactive) | > 100 µM (inactive) | > 100 µM (inactive) | > 100 µM (inactive) | – | – | > 100 µM (inactive) | > 100 µM (inactive)
5 | COP(=O)(OC)C(Cc1cn(C(C)=O)c2ccccc12)C(=O)O (stereo not given) | > 100 µM (inactive) | > 100 µM (inactive) | 8.26 µM (inactive) | > 100 µM (inactive) | > 100 µM (inactive) | > 100 µM (inactive) | > 100 µM (inactive) | > 100 µM (inactive) | > 100 µM (inactive) | > 100 µM (inactive) | > 100 µM (inactive) | – | – | – | – | – | > 100 µM (inactive) | – | – | –
6 | COC1C=CC(O)C(CO)O1 (stereo not given) | > 100 µM (inactive) | – | – | – | – | > 100 µM (inactive) | – | > 100 µM (inactive) | > 100 µM (inactive) | > 100 µM (inactive) | > 100 µM (inactive) | – | > 100 µM (inactive) | > 100 µM (inactive) | > 100 µM (inactive) | – | – | > 100 µM (inactive) | – | > 100 µM (inactive)
7 | O=C1Cc2c(-c3ccccc3)cc(-c3cccc(Cl)c3)nc2-c2ccccc2N1 | – | 1.15 µM (inactive) | 2.22 µM (inactive) | 1.82 µM (inactive) | 5.97 µM (inactive) | 2.1 µM (inactive) | 2.05 µM (inactive) | 1.05 µM (active) | 1.49 µM (inactive) | 37.9 µM (inactive) | 8.09 µM (inactive) | – | – | – | – | – | 4.82 µM (inactive) | – | – | –
8 | Nc1nn(CC(O)CO)c(=O)s1 (stereo not given) | > 100 µM (inactive) | – | – | – | – | > 100 µM (inactive) | – | – | > 100 µM (inactive) | > 100 µM (inactive) | > 100 µM (inactive) | > 100 µM (inactive) | > 100 µM (inactive) | > 100 µM (inactive) | > 100 µM (inactive) | > 100 µM (inactive) | > 100 µM (inactive) | – | > 100 µM (inactive) | > 100 µM (inactive)
9 | C#CC[C@@]12CC(=O)C[C@@H]1CCC1(C2)OCCO1.C#CC[C@]12CC(=O)CC[C@H]1CC(=O)C2 | – | – | > 100 µM (inactive) | – | – | > 100 µM (inactive) | > 100 µM (inactive) | > 100 µM (inactive) | – | – | – | > 100 µM (inactive) | > 100 µM (inactive) | > 100 µM (inactive) | > 100 µM (inactive) | 90.6 µM (inactive) | > 100 µM (inactive) | > 100 µM (inactive) | – | > 100 µM (inactive)
10 | CCSc1nc(N)c2c(-c3ccc(OC)c(OC)c3)c3c(nc2n1)CCCC3 | > 100 µM (inactive) | > 100 µM (inactive) | > 100 µM (inactive) | > 100 µM (inactive) | > 100 µM (inactive) | > 100 µM (inactive) | > 100 µM (inactive) | – | > 100 µM (inactive) | > 100 µM (inactive) | > 100 µM (inactive) | – | – | – | – | – | – | – | – | –
11 | COC(=O)C1=C(O)C(C(=O)OC)[C@]2(O)[C@@H](C(=O)OC)[C@H]1C[C@@H](c1ccccc1)[C@@H]2C(=O)OC (stereo not given in full) | 17.9 µM (inactive) | 16.1 µM (inactive) | 5.93 µM (inactive) | – | – | 13.8 µM (inactive) | – | 6.71 µM (inactive) | 23.7 µM (inactive) | 4.17 µM (inactive) | 10.8 µM (inactive) | – | – | – | – | – | 17.2 µM (inactive) | – | – | –
12 | O=Cc1cn(CCCCCCCCn2cc(C=O)c3ccccc32)c2ccccc12 | > 10 µM (inactive) | > 10 µM (inactive) | 7.13 µM (inactive) | > 10 µM (inactive) | 4.22 µM (inactive) | > 10 µM (inactive) | 5.15 µM (inactive) | > 10 µM (inactive) | > 10 µM (inactive) | 9.57 µM (inactive) | > 10 µM (inactive) | – | – | – | – | – | 1.63 µM (inactive) | – | – | –
13 | CCOC(=O)c1ccc(N[C@@H]2c3cc4c(cc3C(c3cc(OC)c(O)c(OC)c3)[C@H]3C(=O)OCC32)OCO4)cc1 (stereo not given in full) | 0.131 µM (active) | 1.67 µM (inactive) | 0.105 µM (active) | 0.251 µM (active) | 1.61 µM (inactive) | 2.85 µM (inactive) | 1.42 µM (inactive) | – | – | 0.0474 µM (active) | 0.679 µM (active) | – | 1.75 µM (inactive) | 1.44 µM (inactive) | 0.713 µM (active) | – | 0.244 µM (active) | 4.1 µM (inactive) | 0.56 µM (active) | 0.726 µM (active)
14 | CCCCOP1(=O)C=CC(Cl)=C(C)C1 (stereo not given) | 19 µM (inactive) | – | – | 68.7 µM (inactive) | – | 24.7 µM (inactive) | – | > 10 µM (inactive) | 36.6 µM (inactive) | 15.3 µM (inactive) | 33.3 µM (inactive) | – | 29.7 µM (inactive) | – | 22.8 µM (inactive) | 44.5 µM (inactive) | – | – | 25.1 µM (inactive) | 19.2 µM (inactive)
15 | COC(=O)C1=COC2OC3/C(=C\c4ccc(O)c(OC)c4)C(=O)OC34C=CC1C24 (stereo not given) | 15.1 µM (inactive) | – | – | 23.3 µM (inactive) | – | 14.9 µM (inactive) | – | 15.2 µM (inactive) | 17.3 µM (inactive) | 28.8 µM (inactive) | 3.37 µM (inactive) | 16.3 µM (inactive) | 14.2 µM (inactive) | 18.5 µM (inactive) | 17.8 µM (inactive) | – | 27.7 µM (inactive) | 15.2 µM (inactive) | 24.7 µM (inactive) | 3.46 µM (inactive)
16 | CN(CCCCCl)P(=O)(OCC1=CC(=O)c2ccccc2C1=O)OC[C@H]1O[C@@H](n2cc(F)c(=O)[nH]c2=O)C[C@@H]1O (stereo not given in full) | < 0.01 µM (active) | 3.2 µM (inactive) | < 0.01 µM (active) | < 0.0115 µM (active) | 0.165 µM (active) | 0.109 µM (active) | – | 0.239 µM (active) | 1.45 µM (inactive) | – | 0.0897 µM (active) | – | – | – | – | – | – | – | – | –
